Measured values: ChEMBL document CHEMBL1649323, “Easy strategy to protect antimicrobial peptides from fast degradation in serum” (Antimicrob Agents Chemother, 2010)
Converted amounts (≈) assume the structure as drawn.

Key:
Pseudomonas aeruginosa = assay: Antimicrobial activity against Pseudomonas aeruginosa PAO1 H103 by broth microdilution method; format: functional
Staphylococcus aureus = assay: Antimicrobial activity against Staphylococcus aureus ATCC 25923 by broth microdilution method; format: functional
[1] = Half life in mouse serum; format: ADME, cell-free

MIC (Pseudomonas aeruginosa) [µg/mL] | MIC (Staphylococcus aureus) [µg/mL] | half-life [1] [h] | Compound
2 (≈ 1.07 µM) | 1 (≈ 0.534 µM) | – | CC[C@H](C)[C@H](NC(=O)[C@H](CCCNC(=N)N)NC(=O)[C@H](Cc1c[nH]c2ccccc12)NC(=O)[C@H](CCCNC(=N)N)NC(=O)[C@H](CCCNC(=N)N)NC(=O)[C@@H](C)N)C(=O)N[C@H](C(=O)N[C@H](C(=O)N[C@H](C(=O)N[C@@H](CCCNC(=N)N)C(=O)N[C@H](C(=O)N[C@@H](CCCNC(=N)N)C(=O)N[C@@H](CCCNC(=N)N)C(=O)N[C@H](Cc1cnc[nH]1)C(N)=O)C(C)C)[C@@H](C)CC)C(C)C)C(C)C
2 (≈ 1.17 µM) | 1 (≈ 0.587 µM) | – | CC[C@H](C)[C@H](NC(=O)[C@H](CNC(=N)N)NC(=O)[C@H](Cc1c[nH]c2ccccc12)NC(=O)[C@H](CNC(=N)N)NC(=O)[C@H](CNC(=N)N)NC(=O)[C@@H](C)N)C(=O)N[C@H](C(=O)N[C@H](C(=O)N[C@H](C(=O)N[C@@H](CNC(=N)N)C(=O)N[C@H](C(=O)N[C@@H](CNC(=N)N)C(=O)N[C@@H](CNC(=N)N)C(=O)N[C@H](Cc1cnc[nH]1)C(N)=O)C(C)C)[C@@H](C)CC)C(C)C)C(C)C
2 | 1 | 1 | H-RRWRIVVIRVRR-NH2
